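How tested: cells in 96-well plates exposed to compound for 48 hours at five concentrations. GI50: concentration for 50% inhibition of growth. TGI: concentration producing complete growth inhibition.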
Legend:
Experiment in all cases: NCI anticancer screen, dose series, 48 h
SR leukemia = test system: SR leukemia
UACC-257 melanoma = test system: UACC-257 melanoma
EKVX NSCLC = test system: EKVX NSCLC
A498 renal = test system: A498 renal
NCI-H460 lung = test system: NCI-H460 lung
OVCAR-8 ovarian = test system: OVCAR-8 ovarian
LOX IMVI melanoma = test system: LOX IMVI melanoma
SK-MEL-5 melanoma = test system: SK-MEL-5 melanoma
HCT-116 colon = test system: HCT-116 colon
K-562 leukemia = test system: K-562 leukemia
SK-OV-3 ovarian = test system: SK-OV-3 ovarian
UACC-62 melanoma = test system: UACC-62 melanoma
IGROV1 ovarian = test system: IGROV1 ovarian
MCF7 breast = test system: MCF7 breast
NCI-H226 lung = test system: NCI-H226 lung
HT29 colon = test system: HT29 colon
A549 NSCLC = test system: A549 NSCLC
SF-268 CNS = test system: SF-268 CNS
SK-MEL-28 melanoma = test system: SK-MEL-28 melanoma
PC-3 prostate = test system: PC-3 prostate
HCT-15 colon = test system: HCT-15 colon
OVCAR-3 ovarian = test system: OVCAR-3 ovarian
ACHN renal = test system: ACHN renal
OVCAR-5 ovarian = test system: OVCAR-5 ovarian
NCI/ADR-RES ovarian = test system: NCI/ADR-RES ovarian
OVCAR-4 ovarian = test system: OVCAR-4 ovarian
BT-549 breast = test system: BT-549 breast
UO-31 renal = test system: UO-31 renal
RXF 393 renal = test system: RXF 393 renal
SNB-75 CNS = test system: SNB-75 CNS
KM12 colon = test system: KM12 colon
SN12C renal = test system: SN12C renal
TK-10 renal = test system: TK-10 renal
MDA-MB-231 breast = test system: MDA-MB-231 breast
U251 CNS = test system: U251 CNS
M14 melanoma = test system: M14 melanoma
RPMI-8226 leukemia = test system: RPMI-8226 leukemia
COLO 205 colon = test system: COLO 205 colon
MOLT-4 leukemia = test system: MOLT-4 leukemia
SNB-19 CNS = test system: SNB-19 CNS
SF-295 CNS = test system: SF-295 CNS
MDA-MB-435 = test system: MDA-MB-435
NCI-H522 lung = test system: NCI-H522 lung
HS 578T breast = test system: HS 578T breast
NCI-H23 lung = test system: NCI-H23 lung
CAKI-1 renal = test system: CAKI-1 renal
SK-MEL-2 melanoma = test system: SK-MEL-2 melanoma
HOP-92 NSCLC = test system: HOP-92 NSCLC
SW-620 colon = test system: SW-620 colon
DU-145 prostate = test system: DU-145 prostate
SF-539 CNS = test system: SF-539 CNS
786-0 renal = test system: 786-0 renal
HL-60(TB) leukemia = test system: HL-60(TB) leukemia
HOP-62 NSCLC = test system: HOP-62 NSCLC

## OCC1OC(N2C=C(c3nc4ccccc4s3)C3C=CC=CC32)C(O)C1O (stereo not drawn)
SR leukemia
  GI50: 2.34 µM
  TGI: > 50 µM
UACC-257 melanoma
  GI50: 9.17 µM
  TGI: 22.1 µM
EKVX NSCLC
  GI50: 6.27 µM
  TGI: 25.4 µM
A498 renal
  GI50: 7.91 µM
  TGI: 17.7 µM
NCI-H460 lung
  GI50: 9.91 µM
  TGI: > 50 µM
OVCAR-8 ovarian
  GI50: 11.4 µM
  TGI: 29.5 µM
LOX IMVI melanoma
  GI50: 7.1 µM
  TGI: 18 µM
SK-MEL-5 melanoma
  GI50: 6.1 µM
  TGI: 14.5 µM
HCT-116 colon
  GI50: 5.21 µM
  TGI: > 50 µM
K-562 leukemia
  GI50: 16.3 µM
  TGI: > 50 µM
SK-OV-3 ovarian
  GI50: 28.2 µM
  TGI: > 50 µM
UACC-62 melanoma
  GI50: 8.92 µM
  TGI: 19 µM
IGROV1 ovarian
  GI50: 14.8 µM
  TGI: > 50 µM
MCF7 breast
  GI50: 5.95 µM
  TGI: > 50 µM
NCI-H226 lung
  GI50: 8.81 µM
  TGI: 25.5 µM
HT29 colon
  GI50: 9.52 µM
  TGI: 25.2 µM
A549 NSCLC
  GI50: 12.7 µM
  TGI: 41.2 µM
SF-268 CNS
  GI50: 8.11 µM
  TGI: > 50 µM
SK-MEL-28 melanoma
  GI50: 10.8 µM
  TGI: 27.8 µM
PC-3 prostate
  GI50: 8.59 µM
  TGI: 42.4 µM
HCT-15 colon
  GI50: 7.92 µM
  TGI: 22 µM
OVCAR-3 ovarian
  GI50: 13.4 µM
  TGI: 36.6 µM
ACHN renal
  GI50: 4.36 µM
  TGI: 12.4 µM
OVCAR-5 ovarian
  GI50: 11.3 µM
  TGI: 32.7 µM
NCI/ADR-RES ovarian
  GI50: 12.2 µM
  TGI: 36.9 µM
OVCAR-4 ovarian
  GI50: 14.3 µM
  TGI: > 50 µM
BT-549 breast
  GI50: 9.55 µM
  TGI: 27.5 µM
UO-31 renal
  GI50: 17.7 µM
  TGI: > 50 µM
RXF 393 renal
  GI50: 10.6 µM
  TGI: 25.9 µM
SNB-75 CNS
  GI50: 7.8 µM
  TGI: 26 µM
KM12 colon
  GI50: 8.95 µM
  TGI: 23.4 µM
SN12C renal
  GI50: 11.1 µM
  TGI: 34.3 µM
TK-10 renal
  GI50: 6.65 µM
  TGI: 21.9 µM
MDA-MB-231 breast
  GI50: 11.3 µM
  TGI: 30.2 µM
U251 CNS
  GI50: 6 µM
  TGI: 14.8 µM
M14 melanoma
  GI50: 9.6 µM
  TGI: 22.4 µM
RPMI-8226 leukemia
  GI50: 7.57 µM
  TGI: 21.8 µM
COLO 205 colon
  GI50: 14.1 µM
  TGI: 49.6 µM
MOLT-4 leukemia
  GI50: > 50 µM
  TGI: > 50 µM
SNB-19 CNS
  GI50: 18.9 µM
  TGI: > 50 µM
SF-295 CNS
  GI50: 13.1 µM
  TGI: 43.6 µM
MDA-MB-435
  GI50: 12 µM
  TGI: 24.5 µM
NCI-H522 lung
  GI50: > 50 µM
  TGI: > 50 µM
HS 578T breast
  GI50: 14.2 µM
  TGI: > 50 µM
NCI-H23 lung
  GI50: 8.89 µM
  TGI: 28.7 µM
CAKI-1 renal
  GI50: 9.32 µM
  TGI: 22 µM
SK-MEL-2 melanoma
  GI50: 29.7 µM
  TGI: > 50 µM
HOP-92 NSCLC
  GI50: 6.62 µM
  TGI: 20.5 µM
SW-620 colon
  GI50: 9.82 µM
  TGI: > 50 µM
DU-145 prostate
  GI50: 8.2 µM
  TGI: 25.8 µM
SF-539 CNS
  GI50: 8.08 µM
  TGI: 17.8 µM
786-0 renal
  GI50: 8.68 µM
  TGI: 19.5 µM
HL-60(TB) leukemia
  GI50: 21 µM
  TGI: > 50 µM
HOP-62 NSCLC
  GI50: 16 µM
  TGI: > 50 µM

Source: PubChem BioAssay (NCI)
